Measurements taken from patent US20230126987A1, “METHODS FOR TREATING CYTOKINE STORM SYNDROME AND RELATED DISEASES” (Generos Biopharma Ltd., priority 2020, published 2023).

Experiments:
[1] = test system: RSV-infected lung epithelial cells; details: cited from earlier work
[2] = test system: LPS-induced pro-inflammatory cytokines; assay: LPS-induced acute lung injury model in mice, BALF cytokines by ELISA; details: airway LPS 1 µg day 1
H5N1 virus = details: co-administration with zanamivir, compared to antiviral treatment alone; cited from earlier work
H2N2 influenza virus = details: intraperitoneally on days 4 to 10 after exposure to H2N2 influenza virus, following the onset of illness; cited from earlier work
[3] = test system: LPS-induced pro-inflammatory cytokines; assay: LPS-induced sepsis model in mice, plasma cytokines by ELISA; assay type: in vivo, Balb/c mice; details: i.p. 1 hour before LPS 10 mg/kg i.p., DEX 3 mg/kg, Nib1 5 mg/kg, 4 hours after LPS
Protocol: FIGS. 2A and 2B show the cytokine levels of TNFα and IL-6, respectively, in serum as measured by an ELISA kit. […] Whole blood was collected at 4 hours after LPS injection, and the plasma was extracted for ELISA measurement. *indicates P<0.05, **indicates P<0.01, *** indicates P<0.001, and **** indicates P<0.0001.
After 1 hour, all the animals were exposed to lethal dose of LPS (10 mg/kg, 2 mg/mL, i.p., Solarbio L8880). All animals were sacrificed 4 hours after LPS injection for tissue and whole blood collection.
FIGS. 2A and 2B show the cytokine levels of TNFα and IL-6, respectively, in the serum as measured by an ELISA kit. […] Whole blood was collected at 4 hours after LPS injection and plasma was extracted for ELISA measurement. *indicates P<0.05, **indicates P<0.01, *** indicates P<0.001, and **** indicates P<0.0001.

human PBMC = assay: LPS-induced cytokine release in human PBMC, Luminex multiplex cytokine profiling; assay type: cell-based; details: 10 µM 1 h before LPS 100 ng/ml for 4 h; supernatant; relative to DMSO = 100%
[4] = test system: LPS-induced pro-inflammatory cytokines; assay: Repetitive low dose LPS challenge sepsis-like persistent inflammation model in mice, whole blood cell cytokine RT-qPCR; assay type: in vivo, Balb/c mice; details: LPS 10 µg/mouse i.p. daily for 4 days, oral DEX 3 mg/kg or Nib1 0.6 mg/kg daily, whole blood cells RT-qPCR
From the text: FIGS. 4A, 4B, and 4C show the cytokine levels of IL-1β, IL-6, and TNFα, respectively, in the whole blood cells as measured by RT-qPCR. […] At the end of experiment, whole blood cells were collected and the total RNA was extracted for RT-qPCR measurement of the cytokine mRNA. *indicates P<0.05, **indicates P<0.01, *** indicates P<0.001.
At the end of the experiment, all animals were sacrificed, and whole blood cells were purified by centrifugation and subjected to standard RT-qPCR detection of IL-6 and TNFα mRNA levels according to the manufacturer’s instructions.

STAT5 = STAT5 inhibition in Jurkat cells, immunoblotting of IFNβ-induced STAT5 phosphorylation (pY694)
[5] = 3 mg/kg po qd 4 days, compared to DMSO-treated group, p<0.05

CCCCC/C=C/C=C1/C(=O)C=C[C@@H]1C/C=C\CCCC(=O)O [15d-PGJ2]
production of IL-1α, IL-6, and TNF cytokines, CXCL8 and CCL5 chemokines, and ICAM-1 [1]: decreased production

CC(=O)OCC(=O)[C@@]1(O)[C@H](C)C[C@H]2[C@@H]3CCC4=CC(=O)C=C[C@]4(C)[C@@]3(F)[C@@H](O)C[C@@]21C [DEX, dexamethasone acetate]
reduction of IL-6 level in bronchoalveolar lavage fluid [2, 5]: about 50%
reduction of TNFα level in bronchoalveolar lavage fluid [2, 5]: about 50%

Nc1ccc(O)c(C(=O)O)c1 [Mesalamine]
cellular infiltrate (H5N1 virus): diminished cellular infiltrate
survival (H5N1 virus): improved survival

Cc1ccc(C)c(OCCCC(C)(C)C(=O)O)c1 [gemfibrozil]
survival (H2N2 influenza virus): significantly increased survival

O=c1[nH]c2ccccc2n1C1CCN(CCCC(c2ccc(F)cc2)c2ccc(F)cc2)CC1 [pimozide, 1-[1-[4,4-bis(4-fluorophenyl)butyl]-4-piperidinyl]-1,3-dihydro-2H-benzimidazole-2-one]
plasma level of TNFα ([3]; vs DMSO (DEX p<0.0001, Nib1 p<0.01)): significantly reduced
plasma level of IL-6 ([3]; vs DMSO (DEX p<0.01, Nib1 p<0.001)): significantly reduced
secretion of IL4 (human PBMC): significantly reduced
secretion of IL17A (human PBMC): significantly reduced
secretion of IL23 (human PBMC): significantly reduced
secretion of IL-1β (human PBMC): significantly reduced
secretion of IL-6 (human PBMC): significantly reduced
TNFα level ([4]; TNFα returned to basal level): no difference was detected
IL-1β level ([4]; vs DMSO (DEX p<0.05, Nib1 p<0.001)): significantly reduced
IL-6 level ([4]; vs DMSO (both p<0.05)): significantly reduced
level of IL-6 in bronchoalveolar lavage fluid ([2]; 0.6 mg/kg po qd 4 days, vs DMSO, p<0.001): significantly reduced
level of TNFα in bronchoalveolar lavage fluid ([2]; 0.6 mg/kg po qd 4 days, vs DMSO, p<0.01): significantly reduced
reduction of the activation of STAT5 (phosphorylation) (STAT5; Jurkat cells pretreated with 10 µM for 1 hour, then IFNβ 50 ng/ml for 30 min): more than 50%
Phospho-STAT5 signal (STAT5; Jurkat cells treated with 50 µM, IFNβ 50 ng/ml for 30 min): completely undetectable
